Measurements: patent US20030199457A1, “Prevention and treatment of thromboembolic disorders associated with arterial & venous thrombosis” (priority 2002, published 2003)

B1: Abciximab: monoclonal antibody for GPIIb/IIIa (c7E3 Fab) (antibody, chains of the INN, looked up, V domains shown)
VH: EVQLQQSGTVLARPGASVKMSCEASGYTFTNYWMHWVKQRPGQGLEWIGAIYPGNSDTSYIQKFKGKAKLTAVTSTTSVYMELSSLTNEDSAVYYCTLYDGYYVFAYWGQGTLVTVSA
VL: EIVLTQSPVTLSVTPGDSVSLSCRASRDISNNLHWFQQTSHESPRLLIKYASQSMSGIPSRFSGSGSGTDFTLSINSVETEDFGMYFCQQTNSWPYTFGGGTKLEIK
modifications: Fab

What was measured:
thrombosis = settings: U.S. Pat. No. 6,103,705, cited from earlier work
[1] = system: TF-induced clot formation/strength; experiment: Tissue factor-triggered thrombelastography (TEG), clot strength; type: cell-based; settings: GPIIb/IIIa antagonists added to TEG cup with CaCl2 and TF; mimics platelet removal from whole blood
Experimental: Thrombelastography: Clot formation was monitored at 37° C. in an oscillating plastic cylindrical cuvette (“cup”) and a coaxially suspended stationary piston (“pin”) with a 1 mm clearance between the surfaces, using a computerized Thrombelastograph (CTEG Model 3000, Haemoscope, Skokie, Ill.) as described by Mousa et al., Athero Thromb Vasc Biol 2000. The cup oscillates 4°45′ ( 1/12 radian) in either direction every 4.5 seconds, with a 1 second mid-cycle stationary period; resulting in a frequency of 0.1 Hz and a maximal shear rate of 0.1 per second. The pin is suspended by a torsion wire that acts as a torque transducer. […] The torque experienced by the pin (relative to the cup's oscillation) is plotted as a function of time (Essel et al., J Cardiovascular Anesth., 7:410-415, 1993; Mousa et al., Arteriosclerosis Thromb Vasc Biol., 20:1162-1167, 2000). The amplitude on the TEG tracing is a measure of the rigidity of the clot; the peak strength or the shear elastic modulus attained by the clot, G, is a function of clot rigidity and can be calculated from the maximal amplitude (MA) of the TEG (Mousa et al., Arteriosclerosis Thromb Vasc Biol., 20:1162-1167, 2000).
Platelet Contribution to Clot Strength: To assess the effect of the TF modification on peak clot strength (G) was measured with and without the addition of TF in paired samples of WB and PRP. To document the contribution of activated platelets to the elastic modulus of fibrin clots, the effect of platelet number was measured by serially diluting PRP with PPP. The platelet count of each dilution was measured before performing TEG. Tissue factor-triggered TEG was performed with increasing concentrations added to the TEG cups. […] The Thrombelastograph maximum amplitude (MA) for platelets MA (PLT)) was calculated by subtracting the MA from a platelet-poor plasma (PPP) sample MA (PPP) determined in one TEG well from that of whole blood MA (WB) run simultaneously in the second TEG well.

platelet aggregation = settings: combined with LMWH; 0.5 IU/ml thrombin; cited from earlier work

Row | Molecule | anti-thrombotic effect on co-administration with the LMWH enoxaparin (thrombosis; intravenous, sub-effective or reduced levels) | anti-thrombotic effect on co-administration with standard heparin (thrombosis; same reduced level of the GPIIb/IIIa antagonist) | maximal blockade (clot strength) [1] [%] | effect of sub-therapeutic concentrations on the dose-response relationship of LMWH (platelet aggregation)
1 | CCCCS(=O)(=O)N[C@@H](Cc1ccc(OCCCCC2CCNCC2)cc1)C(=O)O [BSPBPA] | enhanced anti-thrombotic effect | This was not the case | – | –
2 | CCCCOC(=O)N[C@@H](CNC(=O)C[C@H]1CC(c2ccc(C(=N)N)cc2)=NO1)C(=O)O [XV459] | – | – | 80 | –
3 | CCCCOC(=O)N[C@@H](CNC(=O)C[C@H]1CC(c2ccc(C(=N)N)cc2)=NO1)C(=O)OC [roxifiban] | – | – | 80 | significant enhancement (synergy) of anti-thrombotic efficacy
4 | B1 | – | – | 80 | significant enhancement (synergy) of anti-thrombotic efficacy
